In PMC3968228 (Cancer chemotherapy and pharmacology, 2014):
Blank lines part the entries; values can stand above or below the molecule they belong to.

Key:
[1] = three new patients on ritonavir-based cART, docetaxel 70 to 100 mg/m^2; cited from earlier work
[2] = for elimination pattern of docetaxel concentration-time profile: docetaxel 20 mg/kg i.v., male FVB mice
[3] = with ritonavir; cited from earlier work
[4] = male, FVB, mouse, plasma, iv, 20 mg/kg

elimination pattern of docetaxel concentration-time profile ([2]; plasma): triphasic
AUC(0-inf) [2, 4]: 10300 ng·h/mL
Cmax [2, 4]: 18100 ± 2200 ng/mL
clearance [2, 4]: 32.2 mL/min/kg
concentration at 24 hr [2, 4]: 9 ± 0.7 ng/mL
Compound: CC(=O)O[C@@]12CO[C@@H]1C[C@H](O)[C@@]1(C)C(=O)[C@H](O)C3=C(C)[C@@H](OC(=O)[C@H](O)[C@@H](NC(=O)OC(C)(C)C)c4ccccc4)C[C@@](O)([C@@H](OC(=O)c4ccccc4)[C@H]21)C3(C)C [Docetaxel]
toxicity [1]: severe toxicities

Compound: O=C1Nc2ccc(Cl)cc2[C@@](C#CC2CC2)(C(F)(F)F)O1 [efavirenz, Efavirenz]
effect on docetaxel exposure (AUC) ([2]; CYP3A4 inducers p.o. x4d before docetaxel 20 mg/kg i.v.): did not have a significant effect
elimination pattern of docetaxel concentration-time profile ([2]; plasma): triphasic

Compound: CC(=O)N1CCN(c2ccc(OCC3COC(Cn4ccnc4)(c4ccc(Cl)cc4Cl)O3)cc2)CC1 (stereo not shown) [ketoconazole, Ketoconazole]
elimination pattern of docetaxel concentration-time profile ([2]; plasma): biphasic

Compound: CC(C)c1nc(CN(C)C(=O)N[C@H](C(=O)N[C@@H](Cc2ccccc2)C[C@H](O)[C@H](Cc2ccccc2)NC(=O)OCc2cncs2)C(C)C)cs1 [ritonavir, Ritonavir]
oral bioavailability of docetaxel [3]: 130-160 % of control
